For data set [1], the system named is Human keratinocytes (HaCat). In kind it is cell-based. The conditions noted are these: for Malonaldehyde and 4-hydroxy alkenal: HaCat, untreated group taken as 100. How it is done:
Human keratinocytes (HaCat) were plated at a density of 1.0×10^6 per 60-mm dish and then cultured in penicillin/streptomycin-containing DMEM (10% FBS) media at conditions of 37° C. and 5% CO2 for 1 week. Then, the culture media were treated with 10^−4 M of each of sesamol, the sesamol derivative of Example 1, and tocopherol as appositive control, for 24 hours. At the next day, the media were treated with 4 mM of t-BHP (t-butyl hydroperoxide) together with each of said compounds and then cultured at conditions of 37° C. and 5% CO2 for 4 hours, after which the cells were collected. The collected cells were dissolved by repeatedly performing freezing/thawing processes, and the following tests were performed in accordance with the method described in an assay kit.
In other words, in the present invention, a lipid peroxide assay kit (Calbiochem) was used as a reagent, and lipid peroxidation was measured using the principle in which long-chain unsaturated fatty acids such as malonaldehyde and 4-hydroxy alkenal form stable compounds at 586 nm by reaction with said reagent. The measurement results are shown in Table 1 below in comparison with an untreated group taken as 100.

The next data set has as its system Fibroblasts. In kind it is cell-based. Particulars: 10^-4 M; for Procollagen Synthesis (%): 24 h, serum-free media, untreated group taken as 100%. How it is done: Fibroblasts were seeded into each well of a 24-well plate at density of 10^6 cells and cultured to 90% confluence. The cultured cells were cultured in serum-free media for 24 hours and then treated with 10^−4 M of each of tocopherol, sesamol and the sesamol derivative of Example 1, which have been dissolved in serum-free media. Then, the cells were cultured in a CO2 incubator for 24 hours. The supernatants of the cell culture media were collected and observed for an increase or decrease in procollagen using a Procollagen type (A) kit. The test results are shown in Table 2 below, in which the effect of each compound on the procollagen synthesis is compared with that of an untreated group, taken as 100%.

In a further data set the test system is alkaline phosphatase. Description: Hydrolysis by phosphatase in phosphate buffer, HPLC of 3-aminopropane phosphoric acid formed. The conditions noted are these: alkaline phosphatase (Sigma-Aldrich), phosphate buffer pH 7.4, HPLC, FIG. 1. In kind it is in vitro ADME. How it is done:
In order to examine whether the sesamol, 3-aminopropane phosphoric acid diester is hydrolyzed by phosphatase present on the skin into sesamol and 3-aminopropane phosphoric acid, the following test was performed. The sesamol, 3-aminopropane phosphoric acid diester of Example 1 and phsophatase were added in phosphate buffer (pH 7.4), followed by hydrolysis. As the phosphatase, alkaline phosphatase commercially available from Sigma-Aldrich Co. was used. The amount of 3-aminopropane phosphoric acid formed as the hydrolysis progressed was measured by HPLC (high-performance liquid chromatography), and the measurement results are shown in FIG. 1.

Where [2] appears, read: 10^-4 M compound 24 h, then 4 mM t-BHP together with compound 4 h.

Where two headings read alike, the source gives them in different places.

In the case of `NCCCOP(=O)(O)Oc1ccc2c(c1)OCO2` [Sesamol derivative of Example 1, sesamol, 3-aminopropane phosphoric acid diester (I)], the “Malonaldehyde and 4-hydroxy alkenal” value in data set [1] (setting [2]) was found to be 260. Moreover, the “antioxidant effect (in words)” value in data set [1] (10^-4 M, t-BHP-treated HaCat, compared with sesamol and tocopherol) was “antioxidant effect similar to those of sesamol and the positive control tocopherol”. For the same compound, in the data set with Fibroblasts, the “Procollagen Synthesis (%)” value is on record as 125%. In addition, the “effect on collagen biosynthesis (in words)” value with Fibroblasts (fibroblasts) is recorded as “showed the effect of increasing collagen biosynthesis”. The “hydrolysis by phosphatase into sesamol and 3-aminopropane phosphoric acid” value with alkaline phosphatase is given as “can be hydrolyzed by phosphatase”.
On to `Oc1ccc2c(c1)OCO2` [Sesamol, sesamol], for which the “Malonaldehyde and 4-hydroxy alkenal” value in data set [1] (setting [2]) is on record as 250. Besides, in the data set on Fibroblasts, the “Procollagen Synthesis (%)” value is 103%.
As to `CC(C)(C)OO` [t-BHP, t-butyl hydroperoxide], the “Malonaldehyde and 4-hydroxy alkenal” value in data set [1] (4 mM t-BHP alone, 4 h) was determined as 320.
tocopherol: the “Malonaldehyde and 4-hydroxy alkenal” value in data set [1] (setting [2]) is listed as 270. Also, in the data set on Fibroblasts, the “Procollagen Synthesis (%)” value is 110%.

The record behind these values is patent publication US7943599B2 (priority 2005, dated 2011).
